In experiment [1] the target is T1, Adenosine receptor A1 (Gallus gallus, UniProt P49892).
T1 sequence (P49892 whole entry): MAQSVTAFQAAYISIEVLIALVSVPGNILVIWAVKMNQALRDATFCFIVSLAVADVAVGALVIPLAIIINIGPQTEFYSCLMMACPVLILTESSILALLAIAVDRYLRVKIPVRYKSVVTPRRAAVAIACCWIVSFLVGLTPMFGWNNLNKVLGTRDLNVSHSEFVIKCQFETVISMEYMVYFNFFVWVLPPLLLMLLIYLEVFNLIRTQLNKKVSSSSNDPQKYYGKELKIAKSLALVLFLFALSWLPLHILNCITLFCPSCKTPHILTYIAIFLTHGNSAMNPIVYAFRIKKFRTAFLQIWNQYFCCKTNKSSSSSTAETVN
Description: Displacement of [125I]ABA from adenosine A1 receptor of chick cerebellar membrane. In general terms: In a radioligand displacement assay an active substance lowers the binding of a labelled ligand.

Experiment [2] is described as follows: Relative affinities for adenosine A2 and A1 receptors.
A further experiment addresses Adenosine A2 receptor (Rattus norvegicus, UniProt P29276+P30543).
The target of experiment [3] is T1, Adenosine receptor A1. Kind of experiment: Binding affinity for Adenosine A1 receptor using [125I]-ABA in chick cerebellar membrane. It is filed as cell membranes, Cerebellum.

Description for Adenosine A2 receptor: Displacement of [3H]-NECA from adenosine A2 receptor of rat striatal membrane

As for `CCc1cccc(Nc2ncnc3c2ncn3C2O[C@H](CO)[C@@H](O)[C@H]2O)c1` (stereo partly drawn), the IC50 (usually the midpoint of a concentration-inhibition curve) on Adenosine receptor A1 [1] was 25.3 nM; against Adenosine A2 receptor, 10200 nM. Moreover, the Selectivity in experiment [2] was found to be 403.
With `OC[C@H]1OC(n2cnc3c(Nc4ccc(F)cc4)ncnc32)[C@H](O)[C@@H]1O` (stereo partly drawn), the IC50 on Adenosine receptor A1 [1] was determined as 13.1 nM; against Adenosine A2 receptor, 860 nM. In experiment [2], this compound gave a Selectivity of 65.
For `Cc1ccc(Nc2ncnc3c2ncn3C2O[C@H](CO)[C@@H](O)[C@H]2O)cc1` (stereo partly drawn), in that order: 8.5 nM, 920 nM and 110.
On the same counts, the results for `CCc1ccc(Nc2ncnc3c2ncn3C2O[C@H](CO)[C@@H](O)[C@H]2O)cc1` (stereo partly drawn) are 12.8 nM, 960 nM and 75.
For the compound `OC[C@H]1OC(n2cnc3c(Nc4cccc(B(O)O)c4)ncnc32)[C@H](O)[C@@H]1O` (stereo partly drawn), the IC50 at Adenosine receptor A1 [1] was found to be 42.1 nM; at Adenosine A2 receptor it was 9300 nM. Also, the Selectivity in experiment [2] was 220.
Take `CCNC(=O)[C@H]1O[C@@H](n2cnc3c(N)ncnc32)[C@H](O)[C@@H]1O` [NECA]: the IC50 on Adenosine receptor A1 [1] turned out to be 17 nM.
In the case of `OC[C@H]1O[C@@H](n2cnc3c(NC4CCCCC4)ncnc32)[C@H](O)[C@@H]1O`, on Adenosine receptor A1 [1], the IC50 stood at 2.5 nM.
Turning to `OC[C@H]1OC(n2cnc3c(Nc4ccc(I)cc4)ncnc32)[C@H](O)[C@@H]1O` (stereo partly drawn), the IC50 on Adenosine receptor A1 [1] worked out at 8.5 nM; against Adenosine A2 receptor it was 1280 nM. In experiment [2], this compound had a Selectivity of 150.
For `OC[C@H]1OC(n2cnc3c(Nc4cccc(I)c4)ncnc32)[C@H](O)[C@@H]1O` (stereo partly drawn), in that order: 19 nM, 11900 nM and 620.
For the compound `OC[C@H]1O[C@@H](n2cnc3c(Nc4ccccc4)ncnc32)[C@H](O)[C@@H]1O` [N6-PHENYLADENOSINE], the half-inhibitory concentration (IC50) on Adenosine receptor A1 [1] was found to be 4.6 nM; against Adenosine A2 receptor it was 660 nM. In addition, the Selectivity in experiment [2] was found to be 140.
Regarding `OC[C@H]1OC(n2cnc3c(Nc4cccc(F)c4)ncnc32)[C@H](O)[C@@H]1O` (stereo partly drawn), the IC50 at Adenosine receptor A1 [1] was 10.3 nM; against Adenosine A2 receptor, 1600 nM. Moreover, in experiment [2], the Selectivity came out at 155.
On to `OC[C@H]1OC(n2cnc3c(Nc4cccc(O)c4)ncnc32)[C@H](O)[C@@H]1O` (stereo partly drawn), for which the Selectivity in experiment [2] worked out at 690. Further, the IC50 worked out at 7640 nM against Adenosine A2 receptor and 11.1 nM at Adenosine receptor A1 [3].
Regarding `COc1ccc(Nc2ncnc3c2ncn3[C@@H]2O[C@H](CO)[C@@H](O)[C@H]2O)cc1`, the half-inhibitory concentration (IC50) on Adenosine receptor A1 [1] stood at 6.4 nM; on Adenosine A2 receptor it was 1760 nM. In experiment [2], the Selectivity turned out to be 275.
Turning to `Nc1cccc(Nc2ncnc3c2ncn3C2O[C@H](CO)[C@@H](O)[C@H]2O)c1` (stereo partly drawn), the concentration for half-maximal inhibition (IC50) came out at 45.1 nM on Adenosine receptor A1 [1] and 10100 nM at Adenosine A2 receptor. In addition, the Selectivity in experiment [2] is 225.

These data come from ChEMBL document CHEMBL1123754, “N6-phenyladenosines: pronounced effect of phenyl substituents on affinity for A2 adenosine receptors” (J Med Chem, 1987).
